# Results: publication PMC10724926, “Characterization of an efficient N-oxygenase from Saccharothrix sp. and its application in the synthesis of azomycin” (Biotechnology for Biofuels and Bioproducts, 2023)
# Like-named read-outs stand apart in the source and are kept apart here.
# What was measured:
# [1] = tested on: T1, SaRohS; test: HPLC of azomycin formed, Michaelis-Menten fit; type: biochemical, Saccharothrix sp.; conditions: pH 5.5, 25 °C, 20 min, 10 µM enzyme, 2 mM FeSO4, 50 µM PMS, 5 mM NADH, 20 mM HEPES
# T1 construct: codon-optimised gene in pETDuet-28a+, E. coli BL21 (DE3), Ni-NTA purified
# Text: HPLC of azomycin formed, Michaelis-Menten fit on SaRohS
# [2] = tested on: Nc1ncc[nH]1; test: purified protein; conditions: pH 5.5, 25 °C, 20 min, 10 µM enzyme, 2 mM FeSO4, 50 µM PMS, 5 mM NADH, 20 mM HEPES
Compound,Km [1] [µM],Km ([1]; read-out: G95A/K115T) [µM],Km ([1]; read-out: T75A) [µM],Km [2] [µM],kcat [2] [s⁻¹],kcat/Km [2] [M⁻¹ s⁻¹]
Nc1ncc[nH]1 [2-aminoimidazole],182.69 ± 0.01,82.68 ± 0.001,924.17 ± 0.1,,,
KaRohS (Kitasatospora azatica),,,,390.55 ± 0.02,0.00383 ± 8.33e-05,10
